{
  "source": "patent US8338368B2",
  "about": "(priority 2005, dated 2012)",
  "key": {"[1]": {"conditions": "pH 7"}, "Glucagon Receptor": {"biological_target": "Glucagon Receptor (Homo sapiens, UniProt P47871)", "sequence (P47871 26-477)": "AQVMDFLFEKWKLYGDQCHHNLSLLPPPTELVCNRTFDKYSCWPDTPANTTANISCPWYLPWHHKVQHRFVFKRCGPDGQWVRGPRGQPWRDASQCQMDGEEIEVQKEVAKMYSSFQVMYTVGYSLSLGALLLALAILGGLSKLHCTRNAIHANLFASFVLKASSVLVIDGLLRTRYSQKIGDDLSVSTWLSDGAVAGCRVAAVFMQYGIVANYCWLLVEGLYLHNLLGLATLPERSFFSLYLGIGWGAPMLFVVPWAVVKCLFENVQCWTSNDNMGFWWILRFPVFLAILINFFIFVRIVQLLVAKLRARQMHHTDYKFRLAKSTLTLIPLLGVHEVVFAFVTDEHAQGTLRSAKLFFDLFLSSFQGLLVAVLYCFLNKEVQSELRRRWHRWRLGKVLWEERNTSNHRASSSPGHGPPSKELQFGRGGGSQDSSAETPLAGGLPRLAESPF", "assay": "Functional assay, cAMP synthesis (luciferase reporter), glucagon receptor"}, "GLP-1 Receptor": {"biological_target": "GLP-1 Receptor (Homo sapiens, UniProt P43220)", "sequence (P43220 24-463, species assumed)": "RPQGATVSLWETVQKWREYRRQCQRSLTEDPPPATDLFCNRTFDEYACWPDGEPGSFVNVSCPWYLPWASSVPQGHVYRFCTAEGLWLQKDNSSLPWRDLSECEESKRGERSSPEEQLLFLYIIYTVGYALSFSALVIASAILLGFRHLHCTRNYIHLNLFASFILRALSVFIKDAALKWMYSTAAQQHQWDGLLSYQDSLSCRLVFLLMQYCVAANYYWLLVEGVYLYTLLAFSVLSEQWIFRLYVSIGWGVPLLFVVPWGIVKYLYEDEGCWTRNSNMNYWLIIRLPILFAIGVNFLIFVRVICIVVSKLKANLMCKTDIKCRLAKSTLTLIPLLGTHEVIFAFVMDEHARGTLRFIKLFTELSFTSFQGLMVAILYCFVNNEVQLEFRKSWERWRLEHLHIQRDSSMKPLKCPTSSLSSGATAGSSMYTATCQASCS", "assay": "cell-based"}},
  "note": "Like-named read-outs stand apart in the source and are kept apart here. Ends that are not written are not given here.",
  "data": [
    {"substance": "Glucagon Cys^17 Mal-PEG-5K [Glucagon, Cys17PEG5K]", "values": [
      {"measurement": "Percent Soluble", "setting": "[1]", "result": 94, "unit": "%"}
    ]},
    {"substance": "Glucagon Cys^24 Maleimido, PEG-3.4K-dimer [Glucagon C24 Dimer]", "values": [
      {"measurement": "EC50", "setting": "Glucagon Receptor; read-out: cAMP Induction Glucagon Receptor EC50, Table 3 (pegylated analogs), HEK293 cells co-transfected with glucagon receptor and CRE-luciferase, 5 h at 37° C.", "result": "0.1 ± 0.05", "unit": "nM"}
    ]},
    {"substance": "HSQGTFTSDYSRYLDSRRAKDFVQWLMNT [Glucagon R12 K20]", "values": [
      {"measurement": "EC50", "setting": "Glucagon Receptor", "result": "0.84 ± 0.4", "unit": "nM"}
    ]},
    {"substance": "HSQGTFTSDYSRYLDSRRAQDFVQWLMNK [Glucagon R12 K29]", "values": [
      {"measurement": "EC50", "setting": "GLP-1 Receptor", "result": "0.41 ± 0.24", "unit": "nM"},
      {"measurement": "EC50", "setting": "Glucagon Receptor", "result": "0.81 ± 0.49", "unit": "nM"}
    ]}
  ]
}
